# Patent US20240299359A1, “PHARMACEUTICAL COMPOSITION FOR ANIMALS CONTAINING 5-HYDROXY-METHYLIMIDAZOLIDINE-2,4-DIONE COMPOUND AS ACTIVE INGREDIENT” (KYONGBO PHARM. CO., LTD., priority 2021, published 2024)
# Where “and” joins values, the source holds several entries; their conditions need not be identical. Equal values may be shown once.
# Assay: 13-week repeated oral toxicity: weight measurement
# Type: in vivo, beagle
# Procedure: During the 13-week test period starting from the day before administration, the weight was measured a total of 15 times before administration (pre), before administration on the day of administration, and every week over the 13-week test period after the first administration at a predetermined time (remaining feed measurement time) before administration of the test substance (on every Tuesday during the test period).
structure (smiles),measurement,setting,value
"CN1C(=O)NC(=O)C1O (stereo not drawn) [KBP-001, 5-hydroxy-1-methylimidazolidine-2,4-dione]",Weight,"200 mg/kg repeated oral (G2), female, week 0, individual animals",9.6 (2×) and 9.1
same,"Weight, Mean","200 mg/kg repeated oral (G2), female, week 0, mean",9.4 kg
same,Weight,"200 mg/kg repeated oral (G2), female, week 1, individual animals, in kg (unit assumed)",9.5 and 9.3 and 9.9
same,"Weight, Mean","200 mg/kg repeated oral (G2), female, week 1, mean",9.6 kg
same,Weight,"200 mg/kg repeated oral (G2), female, week 2, individual animals, in kg (unit assumed)",9.4 and 9.2 and 9.8
same,"Weight, Mean","200 mg/kg repeated oral (G2), female, week 2, mean",9.5 kg
same,Weight,"200 mg/kg repeated oral (G2), female, week 3, individual animals, in kg (unit assumed)",9.4 and 9.1 and 9.9
same,"Weight, Mean","200 mg/kg repeated oral (G2), female, week 3, mean",9.5 kg
same,Weight,"200 mg/kg repeated oral (G2), female, week 4, individual animals, in kg (unit assumed)",9.7 and 9.4 and 9.9
same,"Weight, Mean","200 mg/kg repeated oral (G2), female, week 4, mean",9.7 kg
same,Weight,"200 mg/kg repeated oral (G2), female, week 5, individual animals, in kg (unit assumed)",9.7 and 9.4 and 9.9
same,"Weight, Mean","200 mg/kg repeated oral (G2), female, week 5, mean",9.7 kg
same,Weight,"200 mg/kg repeated oral (G2), female, week 6, individual animals",9.6 (2×) and 9.1
same,"Weight, Mean","200 mg/kg repeated oral (G2), female, week 6, mean",9.4 kg
same,Weight,"200 mg/kg repeated oral (G2), female, week 7, individual animals, in kg (unit assumed)",9.6 and 9.3 and 9.7
same,"Weight, Mean","200 mg/kg repeated oral (G2), female, week 7, mean",9.5 kg
same,Weight,"200 mg/kg repeated oral (G2), female, week 8, individual animals, in kg (unit assumed)",9.5 and 9.3 and 9.8
same,"Weight, Mean","200 mg/kg repeated oral (G2), female, week 8, mean",9.5 kg
same,Weight,"200 mg/kg repeated oral (G2), female, week 9, individual animals, in kg (unit assumed)",9.6 and 9.4 and 9.9
same,"Weight, Mean","200 mg/kg repeated oral (G2), female, week 9, mean",9.6 kg
same,Weight,"200 mg/kg repeated oral (G2), female, week 10, individual animals, in kg (unit assumed)",9.6 and 9.3 and 10.0
same,"Weight, Mean","200 mg/kg repeated oral (G2), female, week 10, mean",9.6 kg
same,Weight,"200 mg/kg repeated oral (G2), female, week 11, individual animals",9.5 (2×) and 10.1
same,"Weight, Mean","200 mg/kg repeated oral (G2), female, week 11, mean",9.7 kg
same,Weight,"200 mg/kg repeated oral (G2), female, week 12, individual animals, in kg (unit assumed)",9.6 and 9.5 and 10.0
same,"Weight, Mean","200 mg/kg repeated oral (G2), female, week 12, mean",9.7 kg
same,Weight,"200 mg/kg repeated oral (G2), female, week 13, individual animals, in kg (unit assumed)",9.7 and 9.5 and 10.2
same,"Weight, Mean","200 mg/kg repeated oral (G2), female, week 13, mean",9.8 kg
same,Weight,"200 mg/kg repeated oral (G2), female, week pre, individual animals",9.6 (2×) and 9.1
same,"Weight, Mean","200 mg/kg repeated oral (G2), female, week pre, mean",9.4 kg
same,Weight,"200 mg/kg repeated oral (G2), male, week 0, individual animals",10.1 (2×) and 10.2
same,"Weight, Mean","200 mg/kg repeated oral (G2), male, week 0, mean",10.1 kg
same,Weight,"200 mg/kg repeated oral (G2), male, week 1, individual animals",10.1 (2×) and 10.2
same,"Weight, Mean","200 mg/kg repeated oral (G2), male, week 1, mean",10.1 kg
same,Weight,"200 mg/kg repeated oral (G2), male, week 2, individual animals, in kg (unit assumed)",9.9 and 10.1 and 10.0
same,"Weight, Mean","200 mg/kg repeated oral (G2), male, week 2, mean",10 kg
same,Weight,"200 mg/kg repeated oral (G2), male, week 3, individual animals",10.0 and 10.1 (2×)
same,"Weight, Mean","200 mg/kg repeated oral (G2), male, week 3, mean",10.1 kg
same,Weight,"200 mg/kg repeated oral (G2), male, week 4, individual animals",10.0 and 10.3 (2×)
same,"Weight, Mean","200 mg/kg repeated oral (G2), male, week 4, mean",10.2 kg
same,Weight,"200 mg/kg repeated oral (G2), male, week 5, individual animals, in kg (unit assumed)",10.1 and 10.5 and 10.3
same,"Weight, Mean","200 mg/kg repeated oral (G2), male, week 5, mean",10.3 kg
same,Weight,"200 mg/kg repeated oral (G2), male, week 6, individual animals, in kg (unit assumed)",10.0 and 10.1 and 10.3
same,"Weight, Mean","200 mg/kg repeated oral (G2), male, week 6, mean",10.1 kg
same,Weight,"200 mg/kg repeated oral (G2), male, week 7, individual animals",10.1 and 10.3 (2×)
same,"Weight, Mean","200 mg/kg repeated oral (G2), male, week 7, mean",10.2 kg
same,Weight,"200 mg/kg repeated oral (G2), male, week 8, individual animals, in kg (unit assumed)",10.1 and 10.3 and 10.2
same,"Weight, Mean","200 mg/kg repeated oral (G2), male, week 8, mean",10.2 kg
same,Weight,"200 mg/kg repeated oral (G2), male, week 9, individual animals, in kg (unit assumed)",10.1 and 10.4 and 10.3
same,"Weight, Mean","200 mg/kg repeated oral (G2), male, week 9, mean",10.3 kg
same,Weight,"200 mg/kg repeated oral (G2), male, week 10, individual animals, in kg (unit assumed)",10.2 and 10.4 and 10.3
same,"Weight, Mean","200 mg/kg repeated oral (G2), male, week 10, mean",10.3 kg
same,Weight,"200 mg/kg repeated oral (G2), male, week 11, individual animals, in kg (unit assumed)",10.1 and 10.4 and 10.3
same,"Weight, Mean","200 mg/kg repeated oral (G2), male, week 11, mean",10.3 kg
same,Weight,"200 mg/kg repeated oral (G2), male, week 12, individual animals",10.2 (2×) and 10.4
same,"Weight, Mean","200 mg/kg repeated oral (G2), male, week 12, mean",10.3 kg
same,Weight,"200 mg/kg repeated oral (G2), male, week 13, individual animals",10.2 (2×) and 10.4
same,"Weight, Mean","200 mg/kg repeated oral (G2), male, week 13, mean",10.3 kg
same,Weight,"200 mg/kg repeated oral (G2), male, week pre, individual animals, in kg (unit assumed)",10.1 and 10.3 and 10.2
same,"Weight, Mean","200 mg/kg repeated oral (G2), male, week pre, mean",10.2 kg
same,"Weight, Mean","500 mg/kg repeated oral (G3), female, week 0, mean",9.5 kg
same,"Weight, Mean","500 mg/kg repeated oral (G3), female, week 1, mean",9.6 kg
same,"Weight, Mean","500 mg/kg repeated oral (G3), female, week 2, mean",9.5 kg
same,"Weight, Mean","500 mg/kg repeated oral (G3), female, week 3, mean",9.6 kg
same,"Weight, Mean","500 mg/kg repeated oral (G3), female, week 4, mean",9.8 kg
same,"Weight, Mean","500 mg/kg repeated oral (G3), female, week 5, mean",9.8 kg
